The text below walks through data of ChEMBL document CHEMBL1159147, “4-(2-PYRTOYL)-5-phenylthiazoles as novel non-bicyclic reversible inhibitors of the gastric H+/K+-atpase” (Bioorg Med Chem Lett, 1995).

T1 sequence (P19156 whole entry): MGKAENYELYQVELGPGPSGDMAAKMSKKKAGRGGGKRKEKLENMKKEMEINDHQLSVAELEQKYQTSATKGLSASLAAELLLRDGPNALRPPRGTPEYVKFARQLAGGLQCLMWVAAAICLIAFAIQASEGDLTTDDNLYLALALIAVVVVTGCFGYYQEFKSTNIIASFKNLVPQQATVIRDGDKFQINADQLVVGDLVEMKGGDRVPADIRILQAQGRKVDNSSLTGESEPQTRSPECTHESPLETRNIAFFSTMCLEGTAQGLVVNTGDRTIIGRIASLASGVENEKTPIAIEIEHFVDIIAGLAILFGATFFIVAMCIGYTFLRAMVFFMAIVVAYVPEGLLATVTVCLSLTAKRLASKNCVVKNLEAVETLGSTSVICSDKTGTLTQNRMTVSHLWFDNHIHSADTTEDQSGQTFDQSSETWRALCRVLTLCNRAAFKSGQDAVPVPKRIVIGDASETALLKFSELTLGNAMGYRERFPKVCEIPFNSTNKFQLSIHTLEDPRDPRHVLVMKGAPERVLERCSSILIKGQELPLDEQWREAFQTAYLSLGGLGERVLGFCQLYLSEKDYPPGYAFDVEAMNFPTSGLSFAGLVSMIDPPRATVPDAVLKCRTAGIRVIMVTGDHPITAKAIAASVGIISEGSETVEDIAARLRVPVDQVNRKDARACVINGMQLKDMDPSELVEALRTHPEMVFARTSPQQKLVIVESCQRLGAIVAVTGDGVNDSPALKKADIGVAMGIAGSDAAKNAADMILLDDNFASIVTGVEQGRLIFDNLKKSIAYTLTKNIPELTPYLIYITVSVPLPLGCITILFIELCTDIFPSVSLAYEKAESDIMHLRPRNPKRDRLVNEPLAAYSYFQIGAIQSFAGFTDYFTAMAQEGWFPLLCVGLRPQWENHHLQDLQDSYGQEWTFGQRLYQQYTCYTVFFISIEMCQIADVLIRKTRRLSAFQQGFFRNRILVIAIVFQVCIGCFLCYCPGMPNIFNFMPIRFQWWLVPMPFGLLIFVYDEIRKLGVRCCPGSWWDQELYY

Biological target in the first data set: not listed separately
Kind of data set: Ability to inhibit Na(+)/K(+)-stimulated ATPase activity in hog kidney. Details: species or system Sus scrofa.
Conditions: not given
In turn, `CCCc1nc(-c2cc(N)ccn2)c(-c2ccccc2C)s1` registered a half-inhibitory concentration (IC50) of 44 µM.

Tested on in a further data set: not listed separately
Nature of the data set: Acid dissociation constant was reported. The data set is classed as ADME.
Conditions: not given
Molecule `CCCc1nc(-c2ccccn2)c(-c2ccccc2C)s1` yielded a pKa of 4.2.
Still for that read-out and setting: in the case of `CCCc1nc(-c2cc(N)ccn2)c(-c2ccccc2C)s1` it was 8; in that of `CCOC(=O)c1cnc2c(OC)cccc2c1Nc1ccccc1C`, 6.7.

The next data set addresses T1, Potassium-transporting ATPase alpha chain 1 (Sus scrofa, UniProt P19156). Kind of data set: Ability to inhibit H+/K+ stimulated ATPase activity in lympholised gastric vesicles. The data set is classed as tissue-based, Stomach.
Conditions: not given
With `CCCc1nc(-c2cccc(NC)n2)c(-c2ccccc2C)s1`, it took 12.5 µM to reach half-maximal inhibition (IC50).
The same measure, in the same setting: in the case of `CCCc1nc(-c2ccccn2)c(-c2ccccc2C)s1` it was 8.2 µM; in that of `Cc1ccccc1-c1sc(Cc2ccccc2)nc1-c1ccccn1`, 9.6 µM; in that of `CCCc1nc(-c2cccc(N)n2)c(-c2ccccc2C)s1`, 2.9 µM.
`CCCc1nc(-c2cc(N)ccn2)c(-c2ccccc2C)s1` yielded an IC50 of 2.2 µM.
Still for that read-out and setting: in the case of `Cc1ccccc1N1CCc2cnc3c(C)cccc3c21` it was 0.98 µM.
For the molecule `CCCc1nc(-c2ccccn2)c(-c2ccccc2)s1`, the IC50 came out at 42.3 µM.
On the same count and under the same terms, under `Cc1ccccc1-c1nc(-c2ccccn2)c(-c2ccccc2C)s1` stands 4.9 µM.

The next data set deals with Rattus norvegicus. Kind of data set: Compound was tested in vivo for its ability to inhibit pentagastrin-stimulated gastric acid secretion in the anesthetized lumen perfused rat at 10 umol/kg iv. The data set is classed as functional. As to conditions: Stomach.
In turn, `CCCc1nc(-c2cccc(NC)n2)c(-c2ccccc2C)s1` came in with an inhibition in vivo at 10 µmol/kg of 42%.
Same read-out and setting: under `CCCc1nc(-c2ccccn2)c(-c2ccccc2C)s1` stands 26%; under `Cc1ccccc1-c1sc(Cc2ccccc2)nc1-c1ccccn1`, 29%.
On the same count and under the same terms, in the case of `CCCc1nc(-c2cccc(N)n2)c(-c2ccccc2C)s1` it was 48%.
The molecule `CCCc1nc(-c2cc(N)ccn2)c(-c2ccccc2C)s1` yielded an inhibition in vivo at 10 µmol/kg of 36%.
In the case of `Cc1ccccc1N1CCc2cnc3c(C)cccc3c21`, the inhibition in vivo at 10 µmol/kg worked out at 47%.
On to `CCCc1nc(-c2ccccn2)c(-c2ccccc2)s1`, for which the inhibition in vivo at 10 µmol/kg came out at 21%.

The next data set has as its target T1, Potassium-transporting ATPase alpha chain 1. Nature of the data set: Compound was evaluated for its ability to inhibit K+-stimulated ATPase activity.
Conditions: not given
With `CCCc1nc(-c2cc(N)ccn2)c(-c2ccccc2C)s1`, the inhibitory constant (Ki) was found to be 0.838 µM.
